# Results: US5811439A, “Thiazolidinedione derivatives, method for preparing the derivatives and pharmaceutical compositions containing same” (Senga Pharmaceutical Laboratory Inc., priority 1995, dated 1998)
# System: 3T3-L1 cells
# Assay: Glucose-uptake test (2-DOG uptake) in 3T3-L1 cells
# Type: cell-based
# Conditions: 24 hours, cpm divided by amount of proteins
# Procedure: Glucose-uptake tests as a means for screening compounds for the effect of reducing the blood sugar level were carried out according to the following procedures. 1) Cell: The following cells were used. 3T3-L1 (purchased from Dainippon Pharmaceutical Co. Ltd.) 2) Reagents: The following reagents were used. DMEM (GIBCO); FBS (GIBCO); […] DMSO: dimethylsulfoxide (Wako Pure Chemical Co., Ltd.); ACS2 (Amersham); urea (Wako Pure Chemical Co., Ltd.); protein-determining kit (Bio Rad Code No.). 3) Instrument: The following instrument was used in the test. 24-well plate (Falcon) 3T3-L1 cells were dispersed in a 10% FBS-containing DME medium in a cell concentration of 10000 cells/ml, the resulting cell suspension was dispensed into a 24-well plate in an amount of 1 ml per well and the cells were cultivated in a 5% CO2 -incubator at 37° C. for 5 days. After soaking up the medium in the wells, the plate was washed once with PBS in an amount of 2 ml/well. […] The cells were cultivated in a sample compound-containing medium at 37° C. for 24 hours in a 5%-CO2 -incubator. After the cultivation, the medium was soaked up and the plate was washed three times with 2 ml/well each of PBS. […] After washing with 2 ml/well of PBS, the PBS was sufficiently soaked up. […] The lysate was also inspected for the amount of proteins using 0.2 ml out of the rest of the lysate, according to the microassay method using a protein-determining kit.
row,Compound,2-DOG Uptake (%) at a concentration of 50 μg/ml
1,"Cl.O=C1NC(=O)C(Cc2cccc3c2ccn3Cc2ccccn2)S1 (stereo not drawn) [Example 337, 5-[1-(2-picolyl)indol-4-yl]methyl-2,4-thiazolidinedione hydrochloride]",181%
2,"O=C1NC(=O)C(Cc2cccc3c2ccn3Cc2ccccn2)S1 (stereo not drawn) [Example 133, 5-[1-(2-picolyl)indol-4-yl]methyl-2,4-thiazolidinedione]",240%

# Same assay, conditions: Mus musculus, 3T3-L1, 24 h, 50 μg/ml, cpm divided by amount of proteins, read-out: 2-DOG Uptake (%) at a concentration of 50 μg/ml
row,Compound,activity at 50 µg/mL
1,"O=C1NC(=O)C(Cc2cc3ccccc3n2Cc2ccccc2)S1 (stereo not drawn) [Example 312, 5-(1-benzylindol-2-yl)methyl-2,4-thiazolidinedione]",164%
2,"COc1cccc(Cn2ccc3c(CC4SC(=O)NC4=O)cccc32)c1 (stereo not drawn) [Example 89, 5-[1-(3-methoxybenzyl)indol-4-yl]methyl-2,4-thiazolidinedione]",185%
3,"O=C1NC(=O)C(Cc2cccc3c2ccn3CC2CCc3ccccc3N2)S1 (stereo not drawn) [Example 148, 5-{1-[(1,2,3,4-tetrahydroquinol-2-yl)methyl]indol-4-yl}methyl-2,4-thiazolidinedione]",153%
4,"Cc1oc(-c2ccccc2)nc1Cn1ccc2c(CC3SC(=O)NC3=O)cccc21 (stereo not drawn) [Example 32, 5-{1-[(5-methyl-2-phenyloxazol-4-yl)methyl]indol-4-yl}methyl-2,4-thiazolidinedione]",215%
5,"Cc1cccc(Cn2cc(CC3SC(=O)NC3=O)c3ccccc32)c1 (stereo not drawn) [Example 281, 5-[1-(3-methylbenzyl)indol-3-yl]methyl-2,4-thiazolidinedione]",244%
6,"O=C1NC(=O)C(Cc2cccc3c2ccn3CCc2ccccc2)S1 (stereo not drawn) [Example 121, 5-(1-phenethylindol-4-yl)methyl-2,4-thiazolidinedione]",218%
7,"O=C1NC(=O)C(Cc2cccc3c2ccn3CCc2cccs2)S1 (stereo not drawn) [Example 139, 5-{1-[2-(thien-2-yl)ethyl]indol-4-yl}methyl-2,4-thiazolidinedione]",153%
8,"Nc1ccc(Cn2ccc3c(CC4SC(=O)NC4=O)cccc32)cc1 (stereo not drawn) [Example 190, 5-[1-(4-aminobenzyl)indol-4-yl]methyl-2,4-thiazolidinedione]",164%
9,"CC(c1ccccc1)n1ccc2c(C=C3SC(=O)NC3=O)cccc21 (stereo not drawn) [Example 173, 5-[1-(α-methylbenzyl)indol-4-yl]methylene-2,4-thiazolidinedione]",153%
10,"O=C1NC(=O)C(Cc2cccc3c2ccn3C(c2ccccc2)c2ccccc2)S1 (stereo not drawn) [Example 177, 5-[1-(benzhydryl)indol-4-yl]methyl-2,4-thiazolidinedione]",159%
11,"Cc1c(C)c2c(c(C)c1O)CCC(C)(COc1ccc(CC3SC(=O)NC3=O)cc1)O2 (racemic) [CS-045, (±)5-[4(6-hydroxy-2,5,7,8-tetramethylchroman-2-yl-methoxy)benzyl2,4-thazolidinedione, reference compound]",172%
12,"COc1ccccc1Cn1ccc2c(CC3SC(=O)NC3=O)cccc21 (stereo not drawn) [Example 86, 5-[1-(2-methoxybenzyl)indol-4-yl]methyl-2,4-thiazolidinedione]",161%
13,"O=C1NC(=O)C(Cc2cccc3c2ccn3Cc2cc(F)cc(F)c2)S1 (stereo not drawn) [Example 71, 5-[1-(3,5-difluorobenzyl)indol-4-yl]-methyl-2,4-thiazolidinedione]",250%
14,"CC1(C)[C@H]2CC=C(Cn3ccc4c(CC5SC(=O)NC5=O)cccc43)[C@@H]1C2 (stereo partly drawn) [Example 199, 5-[1-(1S, 5S, 2-pinen-10-yl)indol-4-yl]methyl-2,4-thiazolidinedione]",206%
15,"O=C1NC(=O)C(=Cc2cccc3c2ccn3Cc2ccncc2)S1 [Example 5, 5-[1-(4-picolyl)indol-4-yl]methylene-2,4-thiazolidinedione]",227%
16,"O=C1NC(=O)C(Cc2cccc3c2ccn3C2CCCCC2)S1 (stereo not drawn) [Example 180, 5-(1-cyclohexylindol-4-yl)methyl-2,4-thiazolidinedione]",232%
17,"O=C1NC(=O)C(Cc2cccc3c2ccn3Cc2cccc(F)c2F)S1 (stereo not drawn) [Example 55, 5-[1-(2,3-difluorobenzyl)indol-4-yl]-methyl-2,4-thiazolidinedione]",180%
18,"O=C1NC(=O)C(Cc2ccc3c(ccn3CCc3ccccc3)c2)S1 (stereo not drawn) [Example 305, 5-(1-phenethylindol-5-yl)methyl-2,4-thiazolidinedione]",215%
19,"O=C1NC(=O)C(Cc2cn(Cc3ccc(C(F)(F)F)cc3)c3ccccc23)S1 (stereo not drawn) [Example 271, 5-{1-[4-(trifluoromethyl)benzyl]indol-3-yl}methyl-2,4-thiazolidinedione]",165%
20,"COC(=O)c1ccc(Cn2ccc3c(C=C4SC(=O)NC4=O)cccc32)cc1 [Example 8, 5-[1-(4-methoxycarbonylbenzyl)indol-4-yl]methylene-2,4-thiazolidinedione]",172%

row,Compound,activity at 50 µg/mL
1,"O=C1NC(=O)C(Cc2cccc3c2ccn3Cc2ccccc2C(F)(F)F)S1 (stereo not drawn) [Example 74, 5-[1-(2-trifluoromethylbenzyl)indol-4-yl]methyl-2,4-thiazolidinedione]",210%
2,"O=C1NC(=O)C(Cc2cn(Cc3cc(F)cc(F)c3)c3ccccc23)S1 (stereo not drawn) [Example 275, 5-[1-(3,5-difluorobenzyl)indol-3-yl]methyl-2,4-thiazolidinedione]",185%
3,"Cc1ccc(S(=O)(=O)n2ccc3c(CC4SC(=O)NC4=O)cccc32)cc1 (stereo not drawn) [Example 24, 5-[1-(p-toluenesulfonyl)indol-4-yl]-methyl-2,4-thiazolidinedione]",186%
4,"COc1ccc(OC)c(Cn2ccc3c(CC4SC(=O)NC4=O)cccc32)c1 (stereo not drawn) [Example 98, 5-[1-(2,5-dimethoxybenzyl)indol-4-yl]methyl-2,4-thiazolidinedione]",180%
5,"CCCCCCn1ccc2c(C=C3SC(=O)NC3=O)cccc21 [Example 155, 5-(1-hexylindol-4-yl)methylene-2,4-thiazolidinedione]",233%
6,"N#Cc1ccc(Cn2ccc3c(CC4SC(=O)NC4=O)cccc32)cc1 (stereo not drawn) [Example 104, 5-[1-(4-cyanobenzyl)indol-4-yl]methyl-2,4-thiazolidinedione]",290%
7,"O=C1NC(=O)C(Cc2cccc3c2ccn3Cc2ccc(C(F)(F)F)cc2)S1 (stereo not drawn) [Example 80, 5-[1-(4-trifluoromethylbenzyl)indol-4-yl]methyl-2,4-thiazolidinedione]",210%
8,"CC(C)=CCCn1ccc2c(CC3SC(=O)NC3=O)cccc21 (stereo not drawn) [Example 165, 5-[1-(4-methyl-3-pentenyl)indol-4-yl]methyl-2,4-thiazolidinedione]",285%
9,"CC#CCn1ccc2c(CC3SC(=O)NC3=O)cccc21 (stereo not drawn) [Example 168, 5-[1-(2-butynyl)indol-4-yl]methyl-2,4-thiazolidinedione]",172%
10,"CCC(CC)Cn1ccc2c(C=C3SC(=O)NC3=O)cccc21 [Example 158, 5-[1-(2-ethylbutyl)indol-4-yl]methylene-2,4-thiazolidinedione]",221%
11,"O=C1NC(=O)C(Cc2cn(Cc3ccc(Cl)cc3)c3ccccc23)S1 (stereo not drawn) [Example 253, 5-[1-(4-chlorobenzyl)indol-3-yl]methyl-2,4-thiazolidinedione]",203%
12,"O=C1NC(=O)C(Cc2cccc3c2ccn3Cc2cccc(C(F)(F)F)c2)S1 (stereo not drawn) [Example 77, 5-[1-(3-trifluoromethylbenzyl)indol-4-yl]methyl-2,4-thiazolidinedione]",185%
13,"COC(=O)c1ccc(Cn2ccc3c(CC4SC(=O)NC4=O)cccc32)cc1 (stereo not drawn) [Example 9, 5-[1-(4-methoxycarbonylbenzyl)indol-4-yl]methyl-2,4-thiazolidinedione]",180%
14,"O=C1NC(=O)C(Cc2cccc3c2ccn3Cc2cc(C(F)(F)F)cc(C(F)(F)F)c2)S1 (stereo not drawn) [Example 214, 5-{1-[3,5-bis(trifluoromethyl)benzyl]indol-4-yl}methyl-2,4-thiazolidinedione]",185%
15,"Cc1nc(Cn2ccc3c(CC4SC(=O)NC4=O)cccc32)cs1 (stereo not drawn) [Example 142, 5-{1-[(2-methylthiazol-4-yl)methyl]indol-4-yl}methyl-2,4-thiazolidinedione]",160%
16,"O=C1NC(=O)C(Cc2cn(Cc3ccc(O)cc3)c3ccccc23)S1 (stereo not drawn) [Example 317, 5-[1-(4-hydroxybenzyl)indol-3-yl]methyl-2,4-thiazolidinedione]",169%
17,"O=C1NC(=O)C(Cc2cn(Cc3cccc(F)c3)c3ccccc23)S1 (stereo not drawn) [Example 273, 5-[1-(3-fluorobenzyl)indol-3-yl]methyl-2,4-thiazolidinedione]",215%
18,"N#Cc1cccc(Cn2cc(CC3SC(=O)NC3=O)c3ccccc32)c1 (stereo not drawn) [Example 283, 5-[1-(3-cyanobenzyl)indol-3-yl]methyl-2,4-thiazolidinedione]",232%
19,"O=C1NC(=O)C(Cc2cccc3c2ccn3Cc2ccc(F)c(F)c2)S1 (stereo not drawn) [Example 68, 5-[1-(3,4-difluorobenzyl)indol-4-yl]-methyl-2,4-thiazolidinedione]",202%
20,"Cc1oc(-c2ccccc2)nc1Cn1ccc2c(C=C3SC(=O)NC3=O)cccc21 [Example 31, 5-{1-[(5-methyl-2-phenyloxazol-4-yl)methyl]indol-4-yl}methylene-2,4-thiazolidine-dione]",208%
